# From patent US9139608B2 (priority 2010, dated 2015)
# Marks after values point to notes of the source that are not given here.
# Key:
# [1] = tested on: acetic acid induced colitis; experiment: Acetic acid induced colitis in rats; format: in vivo, Male Wistar rats; details: 50 mg/kg p.o. once daily, pretreatment for 3 days, n = 6
# Description: The acetic-acid induced colitis is a model of IBD with a similarity of the inflammatory mediators to that of acute human intestinal inflammation.
# Procedure: In this model, initial injury was an epithelial necrosis and edema that variably extended into the lamina propria, submucosa, or external muscle layers, depending of the concentrations and length of exposure to acetic acid. […] Rats were fasted for 24 hrs, anesthetized and a cannula that has 3 mm diameter was inserted into the anus to the depth of 8 cm for instilling 2 ml of 3% acetic acid into the colon for 30 s. After 24 hrs, animals were sacrificed by cervical dislocation, the colon was isolated and the parameters of colitis were measured. […] The reversal of acetic acid induced conditions such as increased colon weight and colon weight to length ratio, which indicated beneficial effects of test drugs on colitis. These effects were further confirmed by decrease in macroscopic lesion score and myeloperoxidase activity in colon tissues.
# histamine induced ulcers = experiment: Histamine (stress) induced ulcers in rats, prophylactic; format: in vivo, Male Wistar rats; details: then Histamine 300 mg/kg i.p., n = 6
# Description: Stress induced gastric lesion is a condition that can cause or aggravate inflammatory reactions in the GI tract.
# [2] = tested on: H. pylori (ATCC 26695, strain MS-5); experiment: H. Pylori infected rats with NSAID induced ulcers (RUT and PCR); format: in vivo, Helicobacter Pylori
# TNBS induced IBD = experiment: TNBS induced colitis in rats; format: in vivo, Male Wistar rats
# Description: In addition, increased body weight, decreased ulcer index and myeloperoxidase activity in colon is seen.
# The trinitrobenzenesulfonic acid (TNBS) induced colitis is one of the standard animal models used for IBD. In this model, a single intracolonic administration of TNBS damages the colonic epithelium and induces prolonged chronic inflammation.
# Procedure: In this study, Male Wistar rats (280-291 g) were fasted for 48 hrs, and put under anaesthesia. A 3 mm diameter cannula was inserted into the anus to the depth of 8 cm and 25 mg of TNBS dissolved in 0.25 ml of 30% ethanol solution was injected to each rat. The rats were positioned tail up for 1 minute. […] A healthy control group receiving only saline but no TNBS was maintained. On day 11, each group of rats were sacrificed by cervical dislocation and the colon was isolated for physical examination. Colon samples were preserved in 10% neutral formalin solution for histopathological evaluation.
# Naproxen induced ulcers = Naproxen induced ulcers in rats, prophylactic; format: in vivo, Male Wistar rats; details: then Naproxen 30 mg/kg p.o., n = 6
# Description: Gastric lesions induced by NSAIDS drugs such as Naproxen can aggravate inflammatory reactions in the GI tract.
# [3] = Pharmacokinetic study: availability of test drug at site of action; format: in vivo; details: healthy rats, single oral dose 250 mg/kg, feces 0-24 h
# Description: The blood samples were collected at 0, 0.25, 0.50, 1, 2, 3, 4, 5 and 6 hours after dosing. Plasma was obtained by centrifugation of blood at 7000 rpm for 15 min at 4° C. and kept at −20° C. until analysis was carried out. The animals were kept in the metabolic cages for collection of urine and feces.
# ethanol induced ulcers = experiment: Ethanol induced ulcers in rats, prophylactic; format: in vivo, Male Wistar rats; details: then Ethanol 8 ml/kg p.o., n = 6
# Description: Consumption of alcohol is another major factor resulting in gastric lesions.
# The mean ulcer area in this study was measured to be 174.4 mm^2±5.814 mm^2 in the control group indicating the ulcerogenic effect of ethanol.
# [4] = tested on: inflammatory bowel disease; experiment: Prospective study in patients with IBD, patient reported outcome; format: in vivo, Humans; design: key to Bleeding, Patient Recorded Outcome / Frequent trips to the bathroom, Patient Recorded Outcome / Dependence on medication diarrhea and pain, Patient Recorded Outcome / Abdominal pain, Patient Recorded Outcome / Diarrhea, Patient Recorded Outcome: 0—Absence; 1—Mild; 2—Moderate; 3—Severe; details: 300 mg twice daily for 6 months; for Abdominal pain, Patient Recorded Outcome / Bleeding, Patient Recorded Outcome / Dependence on medication diarrhea and pain, Patient Recorded Outcome / Diarrhea, Patient Recorded Outcome / Frequent trips to the bathroom, Patient Recorded Outcome: IBD
# Description: A prospective study to assess the efficacy of the test drug in patients with IBD was conducted.
# Thereafter, the efficacy of the test drug was analyzed on the basis of patient reported outcome taken at the beginning and end of the study period. Observations: It was observed that all patients were experiencing relief from IBD related symptoms such as abdominal pain, diarrhea, rectal bleeding, fever, nausea and vomiting. It was further observed that there was significant improvement in bowel control which was seen from reduced frequency of visits to restrooms, dependence on diarrhoea medication and pain associated with bowel movement.
# hemorrhoids = experiment: Prospective uncontrolled pilot study in patients with hemorrhoids, patient reported outcome; format: in vivo, Humans; details: for Bloody stool, Median Value of Patient Reported Outcome / Difficulty to sit or walk, Median Value of Patient Reported Outcome / Edema, Median Value of Patient Reported Outcome / Itching, Median Value of Patient Reported Outcome / Pain, Median Value of Patient Reported Outcome: hemorrhoids, n = 5, scale 0 - Absence to 5 - Severe
# Description: A prospective uncontrolled pilot study to access the efficacy of the test drug in patients with hemorrhoids was conducted. […] The efficacy of the test drug was analyzed on the basis of patient reported outcome taken at the beginning and end of the study period. […] It was further observed that there was significant relief in pain and irritation associated with bowel movement by the end of the treatment period.
# [5] = rats pretreated with 30 mg/kg p.o.
# [6] = rats pretreated with 60 mg/kg p.o.
# [7] = rats pretreated with 120 mg/kg p.o.
# [8] = TNBS induced IBD in rats, 50 mg/kg p.o. once daily, 10 days of treatment, n = 6
# [9] = colon, TNBS induced IBD in rats, 50 mg/kg p.o. once daily, 10 days of treatment, n = 6
# [10] = After Treatment, 300 mg twice daily for 15 days
smiles,measurement,setting,value
"C[C@H]1[C@H](C)CC[C@]2(C(=O)OC3O[C@H](CO[C@H]4O[C@H](CO)[C@@H](O[C@@H]5O[C@@H](C)[C@H](O)[C@@H](O)[C@H]5O)[C@H](O)[C@H]4O)[C@@H](O)[C@H](O)[C@H]3O)CC[C@]3(C)C(=CCC4[C@@]5(C)C[C@@H](O)[C@H](O)[C@@](C)(CO)[C@@H]5CC[C@]43C)[C@H]12 (stereo partly drawn) [Test Drug, Asiaticoside]",Colon length,[1],16.22 ± 0.63 mm
same,Colon weight,[1],1.53 ± 0.10 g
same,Colon width,[1],0.71 ± 0.05 mm
same,Microscopic score,[1]; colon,4.33 ± 0.71
same,Myeloperoxidase activity,[1]; colon,0.02 ± 0.002 U/mg
same,Area of Ulceration,histamine induced ulcers; [5],9.242 ± 0.415* mm^2
same,Area of Ulceration,histamine induced ulcers; [6],7.062 ± 0.362*** mm^2
same,Area of Ulceration,histamine induced ulcers; [7],4.598 ± 0.323*** mm^2
same,ulcer area,[2]; H. Pylori infected rats with NSAID induced ulcers,dose dependent and time dependent reduction
same,"eradication of H. Pylori infection (RUT, PCR)","[2]; H. pylori infected rats with Naproxen induced ulcers, 120 mg/kg p.o. twice daily",not effective in H. Pylori eradication
same,"eradication of H. Pylori infection (RUT, PCR)","[2]; H. pylori infected rats with Naproxen induced ulcers, 240 mg/kg p.o. once daily",not effective in H. Pylori eradication
same,antibacterial action on H. Pylori infection,"[2]; H. pylori infected rats with Naproxen induced ulcers, 360 mg/kg p.o. once daily",rapid antibacterial action on 3rd week
same,"eradication of H. Pylori infection (RUT, PCR)","[2]; H. pylori infected rats with Naproxen induced ulcers, 360 mg/kg p.o. once daily, 9 weeks",eradication of H. Pylori infection in 9 weeks
same,Colon length,TNBS induced IBD; [8],14.14 ± 0.53 mm
same,Colon weight,TNBS induced IBD; [8],1.71 ± 0.07 g
same,Colon width,TNBS induced IBD; [8],0.73 ± 0.13 mm
same,Body weight,"TNBS induced IBD; TNBS induced IBD in rats, Day 0, before treatment, n = 6",252.67 ± 3.121^ns1
same,Body weight,"TNBS induced IBD; TNBS induced IBD in rats, Day 11 (10 days of treatment), 50 mg/kg p.o. once daily, n = 6",293.00 ± 0.84***^
same,Body weight,"TNBS induced IBD; TNBS induced IBD in rats, Normal (Day −2), before treatment, n = 6",286.50 ± 3.14^ns1
same,rectal bleeding,"TNBS induced IBD; TNBS induced IBD model, post treatment after TNBS administration",significantly reduced after 3rd day
same,Microscopic score,TNBS induced IBD; [9],4.40 ± 0.68
same,Myeloperoxidase activity,TNBS induced IBD; [9],0.02 ± 0.0003 U/mg
same,Area of Ulceration,Naproxen induced ulcers; [5],5.49 ± 0.212^ns mm^2
same,Area of Ulceration,Naproxen induced ulcers; [6],4.52 ± 0.169**^ mm^2
same,Area of Ulceration,Naproxen induced ulcers; [7],2.632 ± 0.146***^ mm^2
same,drug recovered from fecal matter,[3],about 81.42%
same,Area of Ulceration,ethanol induced ulcers; [5],159.3 ± 4.846* mm^2
same,Area of Ulceration,ethanol induced ulcers; [6],137.6 ± 4.069*** mm^2
same,Area of Ulceration,ethanol induced ulcers; [7],110.4 ± 2.305*** mm^2
same,"Abdominal pain, Patient Recorded Outcome","[4]; Patient 1, After",1
same,"Bleeding, Patient Recorded Outcome","[4]; Patient 1, After",0
same,"Dependence on medication diarrhea and pain, Patient Recorded Outcome","[4]; Patient 1, After",0
same,"Diarrhea, Patient Recorded Outcome","[4]; Patient 1, After",0
same,"Frequent trips to the bathroom, Patient Recorded Outcome","[4]; Patient 1, After",0
same,"Abdominal pain, Patient Recorded Outcome","[4]; Patient 1, Before",3
same,"Bleeding, Patient Recorded Outcome","[4]; Patient 1, Before",3
same,"Dependence on medication diarrhea and pain, Patient Recorded Outcome","[4]; Patient 1, Before",3
same,"Diarrhea, Patient Recorded Outcome","[4]; Patient 1, Before",3
same,"Frequent trips to the bathroom, Patient Recorded Outcome","[4]; Patient 1, Before",3
same,"Abdominal pain, Patient Recorded Outcome","[4]; Patient 2, After",0
same,"Bleeding, Patient Recorded Outcome","[4]; Patient 2, After",0
same,"Dependence on medication diarrhea and pain, Patient Recorded Outcome","[4]; Patient 2, After",0
same,"Diarrhea, Patient Recorded Outcome","[4]; Patient 2, After",0
same,"Frequent trips to the bathroom, Patient Recorded Outcome","[4]; Patient 2, After",1
same,"Abdominal pain, Patient Recorded Outcome","[4]; Patient 2, Before",3
same,"Bleeding, Patient Recorded Outcome","[4]; Patient 2, Before",3
same,"Dependence on medication diarrhea and pain, Patient Recorded Outcome","[4]; Patient 2, Before",3
same,"Diarrhea, Patient Recorded Outcome","[4]; Patient 2, Before",3
same,"Frequent trips to the bathroom, Patient Recorded Outcome","[4]; Patient 2, Before",3
same,"Abdominal pain, Patient Recorded Outcome","[4]; Patient 3, After",1
same,"Bleeding, Patient Recorded Outcome","[4]; Patient 3, After",0
same,"Dependence on medication diarrhea and pain, Patient Recorded Outcome","[4]; Patient 3, After",1
same,"Diarrhea, Patient Recorded Outcome","[4]; Patient 3, After",2
same,"Frequent trips to the bathroom, Patient Recorded Outcome","[4]; Patient 3, After",0
same,"Abdominal pain, Patient Recorded Outcome","[4]; Patient 3, Before",3
same,"Bleeding, Patient Recorded Outcome","[4]; Patient 3, Before",3
same,"Dependence on medication diarrhea and pain, Patient Recorded Outcome","[4]; Patient 3, Before",3
same,"Diarrhea, Patient Recorded Outcome","[4]; Patient 3, Before",3
same,"Frequent trips to the bathroom, Patient Recorded Outcome","[4]; Patient 3, Before",3
same,"incidences of joint pain, skin diseases or eye related complications",[4]; three IBD patients,"no incidences of joint pain, skin diseases or eye related complications"
same,tolerability,[4]; three IBD patients,well tolerated
same,"Bloody stool, Median Value of Patient Reported Outcome",hemorrhoids; [10],0
same,"Difficulty to sit or walk, Median Value of Patient Reported Outcome",hemorrhoids; [10],1
same,"Edema, Median Value of Patient Reported Outcome",hemorrhoids; [10],1
same,"Itching, Median Value of Patient Reported Outcome",hemorrhoids; [10],2
same,"Pain, Median Value of Patient Reported Outcome",hemorrhoids; [10],2
same,"Bloody stool, Median Value of Patient Reported Outcome",hemorrhoids; Before Treatment,5
same,"Difficulty to sit or walk, Median Value of Patient Reported Outcome",hemorrhoids; Before Treatment,5
same,"Edema, Median Value of Patient Reported Outcome",hemorrhoids; Before Treatment,3
same,"Itching, Median Value of Patient Reported Outcome",hemorrhoids; Before Treatment,5
same,"Pain, Median Value of Patient Reported Outcome",hemorrhoids; Before Treatment,5
same,relief of rectal bleeding,"hemorrhoids; five hemorrhoid patients, 300 mg twice daily",all patients were relieved of rectal bleeding on the 3rd day of treatment
